Data on four molecules can be found in patent US20080070952A1, “Inhibition or Treatment of Dyskinesia” (PROXIMAGEN LTD.,, priority 2005, published 2008).

The experiment concerns L-DOPA primed MPTP treated animals (common marmosets). Briefly: L-DOPA induced motor activity, motor disability and dyskinesia (chorea, dystonia) in L-DOPA primed MPTP treated marmosets. Particulars: same protocol as Examples 1-8; NOS inhibitors s.c., Vinyl L-NIO 6 mg/kg, 7-NI 20 mg/kg, L-NIO dose not given. The format is in vivo, Callithrix Jacchus. The procedure:
In the following procedure, all NOS inhibitors (nNOSi) were administered subcutaneously. All other drugs with the exception of 7-nitroindazole were dissolved in deionised water or for oral administration dissolved in deionised water containing 10% sucrose and were administered orally. 7-nitroindazole was dissolved in a 30:70 v/v in water and DMSO. In experiments using ropinirole, animals were pre-treated with a single oral dose of domperidone (5 mg·kg^−1) as an anti-emetic, 30 min before. Carbidopa and domperidone were given as suspension in deionised water and 10% sucrose.
Adult common marmosets of either sex (Callithrix Jacchus; n=6), weighing between 310 to 380 g were used in this study. Marmosets were housed either in pairs or individually at a temperature of 25±1_ C with 50% relative humidity on a 12-hour light-dark cycle. Animals were fed once daily on a diet of fresh fruit, nuts, Mazuri food pellets, and a supplement of vitamin D3 and had free access to water. On experimental days, the animals were fed following completion of behavioural testing.
Marmosets were treated with 1-methyl-4-phenyl-1,2,3,6-tetrahydropyridine hydrochloride (2.0 mg·kg^−1 subcutaneously; MPTP-HCl; Research Biochemicals International; dissolved in 0.9% sterile saline) daily for 5 consecutive days. This treatment regimen induces a persistent and stable syndrome of akinesia, bradykinesia, rigidity, postural abnormality, incoordination and postural tremor (Jenner and Marsden, 1986; Pearce et al., 1995). Animals were hand fed on a cocktail of Mazuri marmoset jelly, dried milk and pureed bananas until body weight had returned towards pre-treatment levels.
Eight weeks following MPTP-treatment, all animals (n=6) were treated for 30 to 40 days with 12.5 mg·kg^−1 L-DOPA methyl ester (Sigma) plus 12.5 mg·kg^−1 carbidopa (Merck Sharp & Dohme) by oral gavage on a daily basis. Carbidopa was administered 30 to 45 min prior to L-DOPA treatment (Pearce et al., 1995). When animals became dyskinetic, daily dosing with a combination of L-DOPA/carbidopa was changed to a once a week treatment. At this point and on, once a week L-DOPA/carbidopa treatment produced similar level of dyskinesia to that produced at the end of the daily priming period. […]
Motor Activity: Motor activity was measured in test cages equipped with an array of 8 infra red photo sensors (perspex fronted aluminium cages, 50×60×70 cm), The number of beam interruptions due to movement was counted and summed in bins of 10 minute interval using an analogue to digital converter attached to an Intel-based PC. Motor activity was measured over a period of 6 hours and expressed both as time course measuring the number of beam interruption occurring in 10 min time segments, or as the total number of beam interruptions over the test period. […]

On to `C=CCC(=N)NCCC[C@H](N)C(=O)O` [Vinyl L-NIO, L-N5-(1-imino-3-butenyl)-ornithine], for which the L-Dopa induced dyskinesia entry is listed as “reduced”.

`N=C(N)SCCc1cccc(CCSC(=N)N)c1` [1,3 PB-ITU, S,S′-1,3-Phenylene-bis(1,2-ethanediyl)-bis-isothiourea]: the L-Dopa induced dyskinesia entry is on record as “did not reduce”.

As to `O=[N+]([O-])c1cccc2cn[nH]c12` [7-NI, 7-nitroindazole], the L-Dopa induced dyskinesia entry is given as “reduced”.

Consider `N=C(N)SCCN` [S-(2-aminoethyl)-ITU, S-(2-aminoethyl)-isothiourea], for which the L-Dopa induced dyskinesia result was “did not reduce”.
